Converted amounts (≈) assume the structure as drawn. Like-named read-outs stand apart in the source and are kept apart here.
Key:
[1] = system: neonate CBW (cotton bollworm) larvae; experiment: Percent control of neonate CBW larvae by A83543 components, topical pipet method; format: in vivo, Heliothis zea; details: for mortality at 0.5 ppm / mortality at 1 ppm / mortality at 5 ppm / mortality at 10 ppm: 24 h, read-out: Percent Control
Description: Each test compound was formulated by dissolving the compound in an acetone/alcohol (1:1) mixture containing 23 g of "Toximul R" (sulfonate/nonionic emulsifier blend) and 13 g of "Toximul S" (sulfonate/nonionic emulsifier blend) per liter. These mixtures were then diluted with water to give the indicated concentrations.
Additional insects were evaluated using similar formulations and evaluation procedures, with the exceptions noted.
After standard exposure periods, percent mortality was evaluated. The following abbreviations are used:
^1 Treatments with the same letter in parentheses are similar at the
^2 Topical pipet method with 20 larve/replicate and 4 replicates; one
day between treatment and observation.

[2] = system: fourth instar yellow fever mosquito larvae; experiment: whole plant or invertebrate; parameters: species or system Aedes aegypti; details: 24 hr; for mortality at 0.312 ppm: Aedes aegypti, read-out: Percent Control
Source text: The A83543 components were active against yellow fever mosquito (Aedes aegypti) larvae in standard in vitro mosquito larvicide tests.
^a At 24 hr when treated at 0.312 ppm

CBW (cotton bollworm) = experiment: LC50 against CBW, contact; format: in vivo, Heliothis zea; details: spray concentration
Source text: (§1) ^a Corn rootworm rate in soil by wt.; all others as spray

[3] = system: CRW (Southern corn rootworm); experiment: LC50 against CRW; format: in vivo, Diabrotica undecimpunctata howardi; details: rate in soil by wt.
Source text: as §1

Spodoptera eridania = experiment: Outdoor pot tests against Southern armyworm; format: in vivo
Source text: Table XV compares the effectiveness and persistence of A83543A treatment with that of methomyl in outdoor pot tests against Southern armyworm.

SAW (Southern armyworm) = experiment: LC50 against SAW, foliar; format: in vivo; details: Spodoptera eridania, spray concentration
Source text: as §1

Grain Aphid = experiment: LC50 against Grain Aphid; format: in vivo; details: Sitobion avenae; spray concentration
Source text: as §1

[4] = system: SM (twospotted spider mite); experiment: LC50 against SM; format: in vivo; details: Tetranychus urticae; spray concentration
Source text: as §1

CO[C@@H]1[C@@H](OC)[C@H](C)O[C@@H](O[C@H]2C[C@H]3[C@@H]4C=C5C(=O)[C@H](C)[C@@H](O[C@H]6CC[C@H](N(C)C)[C@@H](C)O6)CCC[C@H](C)OC(=O)C[C@H]5[C@@H]4C=C[C@@H]3C2)[C@@H]1OC [A83543E]
mortality at 0.5 ppm ([1]; topical): 28% | mortality at 1 ppm ([1]; topical): 58% | mortality at 5 ppm ([1]; topical): 100% | mortality at 10 ppm ([1]; topical): 100% | mortality at 0.312 ppm [2]: 80%

CC[C@H]1CCC[C@H](O[C@H]2CC[C@H](N(C)C)[C@@H](C)O2)CC(=O)C2=C[C@@H]3[C@@H](C=C[C@@H]4C[C@@H](O[C@@H]5O[C@@H](C)[C@H](OC)[C@@H](OC)[C@H]5OC)C[C@@H]34)[C@@H]2CC(=O)O1 [A83543F]
mortality at 0.5 ppm ([1]; 0.5 ppm, topical pipet, one day): 0% | mortality at 1 ppm ([1]; 1 ppm, topical pipet, one day): 0% | mortality at 5 ppm ([1]; 5 ppm, topical pipet, one day): 0% | mortality at 10 ppm ([1]; 10 ppm, topical pipet, one day): 95% | mortality at 0.312 ppm [2]: 0%

CC[C@H]1CCC[C@H](O[C@H]2CC[C@@H](N(C)C)[C@@H](C)O2)[C@@H](C)C(=O)C2=C[C@@H]3[C@@H](C=C[C@@H]4C[C@@H](O[C@@H]5O[C@@H](C)[C@H](OC)[C@@H](OC)[C@H]5OC)C[C@@H]34)[C@@H]2CC(=O)O1 [A83543G]
Percent Control ([1]; 0.5 ppm, topical pipet, one day, 1440 min): 0% | Percent Control ([1]; 1 ppm, topical pipet, one day): 0% | Percent Control ([1]; 5 ppm, topical pipet, one day, 1440 min): 20% | Percent Control ([1]; 10 ppm, topical pipet, one day, 1440 min): 80% | Percent Control ([2]; 0.312 ppm): 0%

CNC(=O)ON=C(C)SC [methomyl, reference compound]
LC50 (CBW (cotton bollworm)): 14.5 µg/mL (≈ 89.4 µM) | LC50 [3]: 6 µg/mL (≈ 37 µM) | mortality at 63 ppm (Spodoptera eridania; 24 h, 1 day after treatment): 100% | mortality at 125 ppm (Spodoptera eridania; 24 h, 1 day after treatment): 100% | mortality at 250 ppm (Spodoptera eridania; 24 h, 1 day after treatment): 100% | mortality at 500 ppm (Spodoptera eridania; 24 h, 1 day after treatment): 100% | mortality at 63 ppm (Spodoptera eridania; 120 h, 5 days after treatment): 20% | mortality at 125 ppm (Spodoptera eridania; 120 h, 5 days after treatment): 35% | mortality at 250 ppm (Spodoptera eridania; 120 h, 5 days after treatment): 85% | mortality at 500 ppm (Spodoptera eridania; 120 h, 5 days after treatment): 90% | mortality at 63 ppm (Spodoptera eridania; 168 h, 7 days after treatment): 15% | mortality at 125 ppm (Spodoptera eridania; 168 h, 7 days after treatment): 40% | mortality at 250 ppm (Spodoptera eridania; 168 h, 7 days after treatment): 45% | mortality at 500 ppm (Spodoptera eridania; 168 h, 7 days after treatment): 85% | mortality at 63 ppm (Spodoptera eridania; 336 h, 14 days after treatment): 0% | mortality at 125 ppm (Spodoptera eridania; 336 h, 14 days after treatment): 20% | mortality at 250 ppm (Spodoptera eridania; 336 h, 14 days after treatment): 40% | mortality at 500 ppm (Spodoptera eridania; 336 h, 14 days after treatment): 60% | LC50 (SAW (Southern armyworm)): 11.4 µg/mL (≈ 70.3 µM) | LC50 (Grain Aphid): 5.4 µg/mL (≈ 33.3 µM) | LC50 [4]: 71.4 µg/mL (≈ 440 µM)

— patent US5362634A, “Process for producing A83543 compounds” (DowElanco, priority 1991, dated 1994)
